Publication PMC11676875, “In Vitro Screening of an In-House Library of Structurally Distinct Chemotypes Towards the Identification of Novel SARS-CoV-2 Inhibitors” (Pharmaceuticals, 2024)
Where two headings read alike, the source gives them in different places.

Tests used:
[1] = parameters: method as in PMID 29194347, PMID 37238706; settings: cited from earlier work
in vitro = settings: monkey
[2] = mice, i.p.; cited from earlier work
SARS-CoV-2 [3] = assay: microbe, parasite or virus in culture; assay type: cell-based, SARS-CoV-2 B1.1 lineage; settings: for IC50: Severe acute respiratory syndrome coronavirus 2, Vero C1008, 72 h, read-out: SARS-CoV-2 IC50
[4] = microsomes and hepatocytes of different species; cited from earlier work
Dengue virus type 2 = assay: Activity against Dengue virus type 2 (unpublished results); assay type: cell-based
[5] = biological target: α4β2 subtype of the nicotinic receptor; parameters: method as in PMID 12088062; settings: cited from earlier work
[6] = parameters: method as in PMID 34116325; settings: cited from earlier work
[7] = non-human primates; cited from earlier work
SARS-CoV-2 [8] = settings: read-out: IC50 against SARS-CoV-2; cited from earlier work
SARS-CoV-2 [9] = tested on: SARS-CoV-2; parameters: method as in PMID 37367224; settings: lung epithelium cell line; cited from earlier work
SARS-CoV-2 [10] = settings: reference compound; cited from earlier work

SMILES | CC50 (in vitro) [µM] | IC50 (SARS-CoV-2 [3]) [µM] | SAR analysis summary of anti-SARS-CoV-2 activity (SARS-CoV-2 [3]) | also measured
Clc1ccc2c(NC[C@@H]3CCCN4CCCC[C@H]34)ccnc2c1 [Compound 10] | 44 | 2.2 | – | oral bioavailability [1]: excellent; volume of distribution [1]: high; maximum tolerated dose, MTD [2]: greater than 100 mg/Kg; metabolic stability [4]: good
CCN(CC)CCCC(C)Nc1ccnc2cc(Cl)ccc12 (stereo not shown) [CQ, chloroquine, reference compound] | 96.3 | 8.5 | – | –
c1ccc(Nc2cc3nc4ccccc4n(-c4ccccc4)c-3cc2=NCCCCC23CCCCN2CCCC3)cc1 [Compound 3] | 10.5 | 4 | – | –
Oc1ccc(-n2nc3ccc(C(F)(F)F)cc3n2)cc1 [Compound 21] | 25.4 | > 20 | – | activity against SARS-CoV-2 (SARS-CoV-2 [3]): no activity; IC50 (Dengue virus type 2): 17 µM
Clc1ccc(-n2c3cc(=NCCN4CCOCC4)c(Nc4cccnc4)cc-3nc3ccccc32)cc1 [Compound 8] | 1.74 | – | Inactive/ Cytotoxic | –
Cc1ccc(Nc2cc3nc4ccccc4n(-c4ccc(C)cc4)c-3cc2=NCC2CCCN3CCCCC23)cc1 (stereo not shown) [Compound 2] | 2.81 | 1.5 | – | –
O=c1cccc2n1CC1CC2CN(C(=S)NC2CCCCC2)C1 (stereo not shown) [Compound 23] | > 100 | 95.6 | – | Ki [5]: 2.3 µM
CC(=O)Oc1ccccc1C(=O)Oc1ccc(-c2cc(=S)ss2)cc1 [Compound 24] | 32.9 | > 10 | – | activity against SARS-CoV-2 (SARS-CoV-2 [3]): no activity
CN1CCN(CCN=c2cc3n(-c4ccc(Cl)cc4)c4ccccc4nc-3cc2Nc2cccnc2)CC1 [Compound 7] | 2.62 | – | Inactive/ Cytotoxic | water solubility [6]: highly water soluble; inhibition at 1 µM (SARS-CoV-2 [3]; Severe acute respiratory syndrome coronavirus 2, Vero C1008, read-out: % inhibition of viral replication): 20.5%
CCN(CC)CCCn1c(Cn2nnc3ccccc32)nc2cc(C(C)=NNC(N)=S)ccc21 [Compound 15, 2-(1-{2-[(1H-Benzo[d][1,2, 3]triazol-1-yl)methyl]-1-[3-(N,N-diethylamino)propyl]-1H-benzo-[d]imidazol-5-yl}ethylidene)hydrazine-1-carbothioamide] | 67.1 | 14.9 | – | –
CC(=NNC(N)=S)c1ccc2c(c1)nc(Cc1ccccc1)n2C[C@@H]1CCCN2CCCC[C@H]12 [Compound 14, 2-(1-{2-Benzyl-1-[((1S,9aR)-octahydro-2H-quinolizin-1-yl)methyl]-1H-benzo[d]imidazol-5-yl}-ethylidene)hydrazine-1-carbothioamide] | 70 | 12.2 | – | –
CCN(CC)CCCn1c(Cn2nnc3ccccc32)nc2cc(Cl)ccc21 [Compound 18] | 107 | 28.1 | – | –
Cc1ccc2c(c1)nc(Cn1nnc3ccccc31)n2CC[C@@H]1CCCN2CCCC[C@H]12 [Compound 19] | 76.3 | 15.3 | – | –
Clc1ccc2c(NCC34CCCN3CCC4)ccnc2c1 [Compound 11] | 74.5 | 3.7 | – | oral bioavailability [1]: excellent; volume of distribution [1]: high; maximum tolerated dose, MTD [2]: greater than 100 mg/Kg; oral MTD [7]: 50 mg/kg/day; metabolic stability [4]: good
CCN(CC)CCCn1c(Cc2ccccc2)nc2cc(/C(C)=N\NC(N)=O)ccc21 [Compound 12] | > 100 | > 100 | Inactive/ Cytotoxic | –
Fc1ccc(Nc2cc3nc4ccccc4n(-c4ccc(F)cc4)c-3cc2=NCCCCC23CCCCN2CCCC3)cc1 [Compound 4] | 2.19 | > 1 | Inactive/ Cytotoxic | –
CN1CCCC1=CN=Nc1cccc(Br)c1 [Compound 22] | 26.8 | > 20 | – | activity against SARS-CoV-2 (SARS-CoV-2 [3]): no activity; IC50 (Dengue virus type 2): 24 µM
Clc1ccc(-n2c3cc(=NCCCN4CCCCC4)c(Nc4cccnc4)cc-3nc3ccccc32)cc1 [Compound 9] | 1.88 | – | Inactive/ Cytotoxic | –
CCN(CC)CCCn1c(Cc2ccccc2)nc2cc(C(C)=NNC(N)=S)ccc21 [Compound 13] | 96.1 | 20 | – | –
CCN(CCO)CCCC(C)Nc1ccnc2cc(Cl)ccc12 (stereo not shown) [hydroxychloroquine] | – | – | – | IC50 (SARS-CoV-2 [8]): 0.72 µM
Clc1ccc2c(c1)nc(Cn1nnc3ccccc31)n2CC[C@@H]1CCCN2CCCC[C@H]12 [Compound 20] | 19.4 | 6.95 | – | –
Clc1ccc(Nc2cc3nc4ccccc4n(-c4ccc(Cl)cc4)c-3cc2=NCC2CCCN3CCCCC23)cc1 (stereo not shown) [Compound 1] | 3.14 | > 2 | Inactive/ Cytotoxic | –
CC(=O)/C=C(/C)Nc1cccc2c3c([nH]c12)CCCC3 [Compound 25] | > 100 | 90.1 | – | –
Clc1ccc(Nc2cc3nc4ccccc4n(-c4ccc(Cl)cc4)c-3cc2=NCC23CCCN2CCC3)cc1 [Compound 6] | 5.58 | > 3 | Inactive/ Cytotoxic | –
c1ccc(Nc2cc3nc4ccccc4n(-c4ccccc4)c-3cc2=NCC23CCCN2CCC3)cc1 [Compound 5] | 3.2 | > 2 | Inactive/ Cytotoxic | –
CC(C)/N=c1\cc2n(-c3ccc(Cl)cc3)c3ccccc3nc-2cc1Nc1ccc(Cl)cc1 [clofazimine] | – | – | – | reduction in viral RNA load (SARS-CoV-2 [9]): 25%; IC50 (SARS-CoV-2 [10]): 0.31 µM
